One may read the pKa as the negative logarithm of the acid dissociation constant. A high value points to a group that holds its proton tightly.

This is an account of results in ChEMBL document CHEMBL1132004, “Antagonism of the TXA2 receptor by seratrodast: a structural approach” (Bioorg Med Chem Lett, 1999).

A short description of the data set: The pKa of the sulfonamido group of the compound. In kind it is physicochemical.

For the compound `Cc1cccc(Nc2ccncc2S(=O)(=O)/N=C(\NC#N)N2CCCCCC2)c1`, the pKa stood at 6.
